In the NIST ThermoML archive (doi:10.1021/je800334m):

Experiment: excess molar enthalpy (molar enthalpy of mixing); xn = mol fraction of the nth substance listed
Settings: Liquid, Flow calorimetry

CN(C)CCO [2-(N,N-dimethylamino)ethanol] + CO
Settings | excess molar enthalpy [kcal/mol]
298.2 K, 100 kPa, x1 = 0.0499 | -0.0602
298.2 K, 100 kPa, x1 = 0.099 | -0.108
298.2 K, 100 kPa, x1 = 0.1495 | -0.144
298.2 K, 100 kPa, x1 = 0.1981 | -0.172
298.2 K, 100 kPa, x1 = 0.2479 | -0.193
298.2 K, 100 kPa, x1 = 0.2982 | -0.207
298.2 K, 100 kPa, x1 = 0.3481 | -0.214
298.2 K, 100 kPa, x1 = 0.3968 | -0.217
298.2 K, 100 kPa, x1 = 0.4466 | -0.214
298.2 K, 100 kPa, x1 = 0.4972 | -0.207
298.2 K, 100 kPa, x1 = 0.5483 | -0.197
298.2 K, 100 kPa, x1 = 0.5992 | -0.183
298.2 K, 100 kPa, x1 = 0.6494 | -0.167
298.2 K, 100 kPa, x1 = 0.6981 | -0.149
298.2 K, 100 kPa, x1 = 0.7506 | -0.127
298.2 K, 100 kPa, x1 = 0.8007 | -0.105
298.2 K, 100 kPa, x1 = 0.8477 | -0.0821
298.2 K, 100 kPa, x1 = 0.8977 | -0.0564
298.2 K, 100 kPa, x1 = 0.9512 | -0.027
298.2 K, 10000 kPa, x1 = 0.05 | -0.0659
298.2 K, 10000 kPa, x1 = 0.0993 | -0.112
298.2 K, 10000 kPa, x1 = 0.1479 | -0.146
298.2 K, 10000 kPa, x1 = 0.1986 | -0.175
298.2 K, 10000 kPa, x1 = 0.2485 | -0.194
298.2 K, 10000 kPa, x1 = 0.2961 | -0.207
298.2 K, 10000 kPa, x1 = 0.3458 | -0.214
298.2 K, 10000 kPa, x1 = 0.3976 | -0.216
298.2 K, 10000 kPa, x1 = 0.4474 | -0.214
298.2 K, 10000 kPa, x1 = 0.4981 | -0.207
298.2 K, 10000 kPa, x1 = 0.5447 | -0.198
298.2 K, 10000 kPa, x1 = 0.5952 | -0.184
298.2 K, 10000 kPa, x1 = 0.645 | -0.168
298.2 K, 10000 kPa, x1 = 0.6988 | -0.148
298.2 K, 10000 kPa, x1 = 0.7452 | -0.129
298.2 K, 10000 kPa, x1 = 0.7948 | -0.108
298.2 K, 10000 kPa, x1 = 0.8481 | -0.0818
298.2 K, 10000 kPa, x1 = 0.898 | -0.0562
313.2 K, 100 kPa, x1 = 0.0499 | -0.062
313.2 K, 100 kPa, x1 = 0.099 | -0.109
313.2 K, 100 kPa, x1 = 0.1495 | -0.148
313.2 K, 100 kPa, x1 = 0.1981 | -0.177
313.2 K, 100 kPa, x1 = 0.2479 | -0.197
313.2 K, 100 kPa, x1 = 0.2982 | -0.21
313.2 K, 100 kPa, x1 = 0.3481 | -0.217
313.2 K, 100 kPa, x1 = 0.3968 | -0.219
313.2 K, 100 kPa, x1 = 0.4466 | -0.217
313.2 K, 100 kPa, x1 = 0.4972 | -0.211
313.2 K, 100 kPa, x1 = 0.5483 | -0.199
313.2 K, 100 kPa, x1 = 0.5992 | -0.187
313.2 K, 100 kPa, x1 = 0.6494 | -0.17
313.2 K, 100 kPa, x1 = 0.6981 | -0.151
313.2 K, 100 kPa, x1 = 0.7506 | -0.13
313.2 K, 100 kPa, x1 = 0.8007 | -0.106
313.2 K, 100 kPa, x1 = 0.8477 | -0.0831
313.2 K, 100 kPa, x1 = 0.8977 | -0.0566
313.2 K, 100 kPa, x1 = 0.9512 | -0.028
313.2 K, 10000 kPa, x1 = 0.0502 | -0.0624
313.2 K, 10000 kPa, x1 = 0.0996 | -0.111
313.2 K, 10000 kPa, x1 = 0.1484 | -0.148
313.2 K, 10000 kPa, x1 = 0.1992 | -0.177
313.2 K, 10000 kPa, x1 = 0.2491 | -0.198
313.2 K, 10000 kPa, x1 = 0.2968 | -0.211
313.2 K, 10000 kPa, x1 = 0.3465 | -0.219
313.2 K, 10000 kPa, x1 = 0.3983 | -0.222
313.2 K, 10000 kPa, x1 = 0.4482 | -0.219
313.2 K, 10000 kPa, x1 = 0.4989 | -0.213
313.2 K, 10000 kPa, x1 = 0.5455 | -0.203
313.2 K, 10000 kPa, x1 = 0.596 | -0.19
313.2 K, 10000 kPa, x1 = 0.6457 | -0.174
313.2 K, 10000 kPa, x1 = 0.6995 | -0.153
313.2 K, 10000 kPa, x1 = 0.7458 | -0.133
313.2 K, 10000 kPa, x1 = 0.7953 | -0.111
313.2 K, 10000 kPa, x1 = 0.8485 | -0.0847
313.2 K, 10000 kPa, x1 = 0.8983 | -0.0578
328.2 K, 100 kPa, x1 = 0.1479 | -0.141
328.2 K, 100 kPa, x1 = 0.1972 | -0.171
328.2 K, 100 kPa, x1 = 0.2469 | -0.192
328.2 K, 100 kPa, x1 = 0.2976 | -0.206
328.2 K, 100 kPa, x1 = 0.3469 | -0.214
328.2 K, 100 kPa, x1 = 0.3974 | -0.216
328.2 K, 100 kPa, x1 = 0.4466 | -0.214
328.2 K, 100 kPa, x1 = 0.4956 | -0.207
328.2 K, 100 kPa, x1 = 0.5465 | -0.197
328.2 K, 100 kPa, x1 = 0.5963 | -0.183
328.2 K, 100 kPa, x1 = 0.6473 | -0.167
328.2 K, 10000 kPa, x1 = 0.1487 | -0.142
328.2 K, 10000 kPa, x1 = 0.1983 | -0.171
328.2 K, 10000 kPa, x1 = 0.2481 | -0.194
328.2 K, 10000 kPa, x1 = 0.2973 | -0.207
328.2 K, 10000 kPa, x1 = 0.3465 | -0.216
328.2 K, 10000 kPa, x1 = 0.397 | -0.218
328.2 K, 10000 kPa, x1 = 0.446 | -0.217
328.2 K, 10000 kPa, x1 = 0.4972 | -0.21
328.2 K, 10000 kPa, x1 = 0.5455 | -0.201
328.2 K, 10000 kPa, x1 = 0.5979 | -0.187
328.2 K, 10000 kPa, x1 = 0.6457 | -0.172
328.2 K, 10000 kPa, x1 = 0.6973 | -0.153
